Measurements reported in patent US11471506B2, “VIP antagonists and uses in treating cancer” (Emory University, priority 2018, dated 2022).
Entries after “also recorded” stand apart in the source; their conditions may differ. Ends that are not written are not given here.

Key:
T cells = assay: in vitro T cell proliferation in response to stimulation with anti-CD3 antibodies, with or without exogenous VIP; type: cell-based; conditions: for reversal / block of the suppressive effect of exogenous VIP on T cell proliferation: exogenous VIP peptide added
Protocol: Whether VIPhyb treatment would enhance T cell activation and cytotoxicity in response to melanoma, which can be highly immunogenic, was tested.
The anticancer activity of treatment with VIPhyb appears to be T cell mediated.

B16F1 cells = assay: B16F1 melanoma syngeneic model in B6 Albino mice, VIPhyb alone; type: in vivo, mouse
Protocol: To investigate VIPhyb as an immunotherapy for melanoma, and to determine the best route of administration, Luciferase-expression B16F1 cells were injected into B6 Albino syngeneic recipients and given 10 μg of VIPhyb peritumorally or subcutaneously on the contralateral flank beginning 1 day before tumor inoculation and continuing daily until the experimental endpoint.
Whether VIPhyb has an effect on adaptive immunity was testes. Mice with tumors that exceeded 500 mm^3 in volume were euthanized and their splenocytes phenotyped using flow cytometry. Blood was also collected for a complete blood count (CBC) to determine amount of peripheral white blood cells (WBCs). Of particular interest was the expansion of CD8+ T cells to corroborate the in vitro data, and expression of the inhibitory molecule PD-1.

[1] = tested on: luciferase expressing splenocytes from B6 mice; assay: splenocyte co-culture with irradiated B16F1 and B16F10 cells, proliferation by BLI; type: cell-based, mouse; conditions: co-culture with irradiated B16 cells, anti-CD3 pre-coated plates, low-dose IL-2, 3 days
Protocol: Splenocytes isolated from 3 naïve luciferase+ B6 mouse were cultured with irradiated B16 cells and with or without VIPhyb in triplicate, and proliferation measured with BLI.
Whether combination of a VIPhyb with a PD-1 inhibitor could enhance an adaptive immune response to the more aggressive B16F10 model in vitro was investigated. Therefore, irradiated B16F1 and B16F10 cells were co-cultured with luciferase expressing splenocytes from B6 mice. Cells were placed in 96-well plates pre-coated with anti-CD3 antibody and low-dose recombinant murine IL-2 for 3 days and assessed proliferation by BLI.

B16F10 cells = assay: B16F10 melanoma model in B6 Albino mice, VIPhyb and/or anti-PD-1 antibody; type: in vivo, mouse; conditions: VIPhyb 10 μg s.c. daily for 10 days, PD-1 antibody 200 μg i.p. every 3 days, three doses, versus untreated
Protocol: Tumor volumes were calculated as […].
B16F10 cells were injected into B6 Albino mice. VIPhyb (10 μg) was administered subcutaneously every day for 10 days. Three doses of 200 μg of an PD-1 antibody was intraperitoneally administered every 3 days. A combination both VIPhyb and the PD-1 antibody were also administered.

[2] = tested on: KPC luc pancreatic cancer cells; assay: MTT assay of viable KPC luc cells after VIPhyb; type: cell-based, murine; conditions: 0, 0.5, 1, 3 and 5 uM VIPhyb, 24 hours
Protocol: KPC luc pancreatic cancer cells were cultured in a 96 well plate for 24 hours with different concentrations of VIPhyb (0, 0.5, 1, 3 and 5 uM). Number of viable cells after 24 hours were quantified via MTT assay.

melanoma = assay: direct effect of VIPhyb on melanoma cells; type: cell-based; conditions: melanoma expressing VPAC2
[3] = in vitro stability of the peptide on the nanoparticle; type: physicochemical; conditions: nanoparticle-conjugated peptide

KPRRPYTDNYTRLRKQMAVKKYLNSILN [VIPhyb, hybrid peptide of neurotensin (6-11) and VIP (7-28); antagonist of VIP signalling]
in vitro T cell proliferation in response to stimulation with anti-CD3 antibodies (T cells): dose-dependent enhancement | reversal / block of the suppressive effect of exogenous VIP on T cell proliferation (T cells): reversal of the suppressive effect of exogenous VIP peptide; also recorded: reversed exogenous VIP mediated splenic T cell suppression | survival (B16F1 cells; B16F1, 10 μg VIPhyb daily): no significant difference | tumor volume / tumor growth (B16F1 cells; B16F1, 10 μg VIPhyb daily, digital calipers twice weekly, versus untreated): no significant change; also recorded: did not have a significant effect; also recorded: does not affect tumor size | overall tumor burden by bioluminescent imaging (B16F1 cells; B16F1, once weekly BLI): no tumor reduction | peripheral WBCs (B16F1 cells; peripheral blood, complete blood count): nonsignificant modest increase | tumor burden between the two routes of administration (B16F1 cells; peritumorally versus subcutaneously on the contralateral flank): no difference in tumor burden | B cells (B16F1 cells; spleen upon euthanasia): nonsignificant increase | NK cells (B16F1 cells; spleen upon euthanasia): nonsignificant increase | dendritic cell subtypes (B16F1 cells; spleen upon euthanasia): nonsignificant increase | CD4+ T cells (B16F1 cells; spleen upon euthanasia, flow cytometry): nonsignificant modest increase | CD8+ T cells (B16F1 cells; spleen upon euthanasia, flow cytometry, versus PBS/saline-treated controls): significantly more; also recorded: Increased CD8+ T cell Proliferation; also recorded: more effector CD8+ T cells; also recorded: bolsters CD8+ proliferation | frequency of IFNγ, TNF, Granzyme B, and IL-2-producing cells in the CD4+ and CD8+ compartments (B16F1 cells; spleen, intracellular cytokine staining, versus PBS treated controls): no significant difference | frequency of CD4+ and CD8+ T cells expressing PD-1, CTLA-4, and Lag-3 (B16F1 cells; spleen, versus PBS treated controls): no significant difference | splenocyte / T cell proliferation [1]: not enough to promote expansion of splenocytes; also recorded: lack of splenocyte proliferation | tumor volume / tumor growth (B16F10 cells): lower average tumor volume | number of viable cells (direct killing) [2]: does not directly kill | direct effect on melanoma growth, invasiveness, and modulation of inhibitory surface molecules (melanoma): absence of a direct effect

VIPhyb-NP: VIPhyb with C-terminal GGGGSC linker (SEQ ID NO: 3) conjugated to a 30 nm Pluronic-stabilized polypropylene sulfide nanoparticle (KPRRPYTDNYTRLRKQMAVKKYLNSILNGGGGSC; also: conjugated to 30 nm Pluronic-stabilized polypropylene sulfide nanoparticle)
in vitro T cell proliferation in response to stimulation with anti-CD3 antibodies (T cells): conserved | reversal / block of the suppressive effect of exogenous VIP on T cell proliferation (T cells): able to block the effects of exogenous VIP at higher concentrations | potency of the nanoparticle formulation (T cells; nanoparticle formulation versus free peptide): increased potency | stabilization of the peptide in vitro [3]: stabilize the peptide in vitro
